Values of other authors, collected in patent US20140187635A1, “DICLOFENAC COMPOSITIONS” (THEMIS MEDICARE LIMITED, priority 2012, published 2014).
Read-outs that look alike come from different tables or passages of the source.

Legend:
rat = details: in vivo, iv
rabbit = details: intravenous
Dog = details: intravenous

What does the source list for `CCOCCOCCO` [Transcutol, diethylene glycol monoethyl ether]?
LD50 (rat): 4000 mg/kg; eyes: rabbit (eyes: rabbit): 500 mg; LD50 (mouse; in vivo, ip): 2300 mg/kg; LD50 (mouse; intravenous): 4300 µL/kg; LD50 (subcutaneous: mouse) (mouse; subcutaneous): 5500 µL/kg; LD50 (rabbit): 2500 µL/kg; LD50 (Dog): 3 mL/kg
